Results on 19 compounds are retold here after patent US9914731B2, “Pyrazolo[1,5-a]pyridine derivatives and methods of their use” (Ignyta, Inc., priority 2013, dated 2018).

Molecules are shown by their SMILES.

The first assay addresses recombinant human baculovirus-expressed cMET (Homo sapiens (Human), UniProt P08581). The assay can be described thus: c-MET kinase assay (HTRF KinEASE). In kind it is biochemical.
Conditions: not given
As for `O=C(Nc1ccc(Oc2cccn3nccc23)c(F)c1)C1CCN(c2ccc(F)cc2)C1=O` (stereo not shown) [Example 10, 1-(4-Fluoro-phenyl)-2-oxo-pyrrolidine-3-carboxylic acid [3-fluoro-4-(pyrazolo[1,5-a]pyridin-4-yloxy)-phenyl]-amide], the IC50 (usually the midpoint of a concentration-inhibition curve) is 10 to 100 nM.

Staying with this assay, now noted: average of two or more determinations; read-out: c-MET IC50.
On to `O=C(Nc1ccc(Oc2cccn3nccc23)c(F)c1)c1cccn(Cc2cccc(F)c2)c1=O` [Example 9, 1-(3-Fluoro-benzyl)-2-oxo-1,2-dihydro-pyridine-3-carboxylic acid [3-fluoro-4-(pyrazolo[1,5-a]pyridin-4-yloxy)-phenyl]-amide], for which the 50% inhibitory concentration (IC50) lay within 101 to 1000 nM. Regarding `O=C(Nc1ccc(Oc2cc(N3CCCCC3)cn3nccc23)c(F)c1)c1cccn(-c2ccc(F)cc2)c1=O` [Example 57, 1-(4-Fluoro-phenyl)-2-oxo-1,2-dihydro-pyridine-3-carboxylic acid[3-fluoro-4-(6-piperidin-1-yl-pyrazolo[1,5-a]pyridin-4-yloxy)-phenyl]-amide], the half-inhibitory concentration (IC50) was under 10 nM.

Take `Cc1cccc(-c2cc(Oc3ccc(NC(=O)c4cn(C(C)C)c(=O)n(-c5ccc(F)cc5)c4=O)cc3F)c3ccnn3c2)n1` [Example 137, 3-(4-Fluoro-phenyl)-1-isopropyl-2,4-dioxo-1,2,3,4-tetrahydro-pyrimidine-5-carboxylic acid{3-fluoro-4-[6-(6-methyl-pyridin-2-yl)-pyrazolo[1,5-a]pyridin-4-yloxy]-phenyl}-amide]: the IC50 lay in the range of 10 to 100 nM. With `COc1cc(Oc2ccc(NC(=O)c3cccn(-c4ccc(F)cc4)c3=O)cc2F)c2ccnn2c1` [Example 22, 1-(4-Fluoro-phenyl)-2-oxo-1,2-dihydro-pyridine-3-carboxylic acid [3-fluoro-4-(6-methoxy-pyrazolo[1,5-a]pyridin-4-yloxy)-phenyl]-amide], the IC50 lay within 101 to 1000 nM. The same measure, in the same setting: to `O=C(Nc1ccc(Oc2cc(N3CCCC3)cn3nccc23)c(F)c1)c1cccn(-c2ccc(F)cc2)c1=O` [Example 75, 1-(4-Fluoro-phenyl)-2-oxo-1,2-dihydro-pyridine-3-carboxylic acid[3-fluoro-4-(6-pyrrolidin-1-yl-pyrazolo[1,5-a]pyridin-4-yloxy)-phenyl]-amide] belongs under 10 nM. For the compound `Cn1cnc(-c2cc(Oc3ccc(NS(=O)(=O)c4ccc(F)cc4)cc3F)c3ccnn3c2)c1` [Example 153, 4-Fluoro-N-{3-fluoro-4-[6-(1-methyl-1H-imidazol-4-yl)-pyrazolo[1,5-a]pyridin-4-yloxy]-phenyl}-benzenesulfonamide], the half-maximal inhibitory concentration (IC50) is 1000 to 10000 nM. For the compound `O=C(Nc1ccc(Oc2cc(Br)cn3nccc23)c(F)c1)c1cccn(-c2ccc(F)cc2)c1=O` [Example 24, (4-Fluoro-phenyl)-2-oxo-1,2-dihydro-pyridine-3-carboxylic acid [4-(6-bromo-pyrazolo[1,5-a]pyridin-4-yloxy)-3-fluoro-phenyl]-amide], the half-maximal inhibitory concentration (IC50) was under 10 nM. `CCn1cc(C(=O)Nc2ccc(Oc3cc(N4CCOCC4)cn4nccc34)c(F)c2)c(=O)n(-c2ccc(F)cc2)c1=O` [Example 61, 1-Ethyl-3-(4-fluoro-phenyl)-2,4-dioxo-1,2,3,4-tetrahydro-pyrimidine-5-carboxylic acid[3-fluoro-4-(6-morpholin-4-yl-pyrazolo[1,5-a]pyridin-4-yloxy)-phenyl]-amide]: the 50% inhibitory concentration (IC50) was under 10 nM. The same measure, in the same setting: for `Cc1ccc(C(=O)Nc2ccc(Oc3cc(-c4ncco4)cn4nccc34)c(F)c2)c(=O)n1-c1ccc(F)cc1` [Example 98, 1-(4-Fluoro-phenyl)-6-methyl-2-oxo-1,2-dihydro-pyridine-3-carboxylic acid [3-fluoro-4-(6-oxazol-2-yl-pyrazolo[1,5-a]pyridin-4-yloxy)-phenyl]-amide] the value was under 10 nM.

Regarding `CCn1cc(C(=O)Nc2ccc(Oc3cc(N4CCS(=O)(=O)CC4)cn4nccc34)c(F)c2)c(=O)n(-c2ccc(F)cc2)c1=O` [Example 73, 1-Ethyl-3-(4-fluoro-phenyl)-2,4-dioxo-1,2,3,4-tetrahydro-pyrimidine-5-carboxylic acid{4-[6-(1,1-dioxo-thiomorpholin-4-yl)-pyrazolo[1,5-a]pyridin-4-yloxy]-3-fluoro-phenyl}-amide], the IC50 is under 10 nM. Same read-out and setting: for `CC(C)n1cc(C(=O)Nc2ccc(Oc3cc(N4CCS(=O)(=O)CC4)cn4nccc34)c(F)c2)c(=O)n(-c2ccc(F)cc2)c1=O` [Example 74, 3-(4-Fluoro-phenyl)-1-isopropyl-2,4-dioxo-1,2,3,4-tetrahydro-pyrimidine-5-carboxylic acid{4-[6-(1,1-dioxo-thiomorpholin-4-yl)-pyrazolo[1,5-a]pyridin-4-yloxy]-3-fluoro-phenyl}-amide] the value was under 10 nM; for `CC(C)n1cc(C(=O)Nc2ccc(Oc3cc(NS(C)(=O)=O)cn4nccc34)c(F)c2)c(=O)n(-c2ccc(F)cc2)c1=O` [Example 141, 3-(4-Fluoro-phenyl)-1-isopropyl-2,4-dioxo-1,2,3,4-tetrahydro-pyrimidine-5-carboxylic acid[3-fluoro-4-(6-methanesulfonylamino-pyrazolo[1,5-a]pyridin-4-yloxy)-phenyl]-amide], 10 to 100 nM. Regarding `CCn1cc(C(=O)Nc2ccc(Oc3cc(-c4cnccn4)cn4nccc34)c(F)c2)c(=O)n(-c2ccc(F)cc2)c1=O` [Example 134, 1-Ethyl-3-(4-fluoro-phenyl)-2,4-dioxo-1,2,3,4-tetrahydro-pyrimidine-5-carboxylic acid[3-fluoro-4-(6-pyrazin-2-yl-pyrazolo[1,5-a]pyridin-4-yloxy)-phenyl]-amide], the IC50 was in the range of 10 to 100 nM. `CCOc1ccn(-c2ccc(F)cc2)c(=O)c1C(=O)Nc1ccc(Oc2cc(-c3cn(C)cn3)cn3nccc23)c(F)c1` [Example 112, 4-Ethoxy-1-(4-fluoro-phenyl)-2-oxo-1,2-dihydro-pyridine-3-carboxylic acid {3-fluoro-4-[6-(1-methyl-1H-imidazol-4-yl)-pyrazolo[1,5-a]pyridin-4-yloxy]-phenyl}-amide]: the concentration for half-maximal inhibition (IC50) was under 10 nM. As to `Cc1ccc(C(=O)Nc2ccc(Oc3cc(Br)cn4nccc34)c(F)c2)c(=O)n1-c1ccc(F)cc1` [Example 157, 1-(4-Fluoro-phenyl)-6-methyl-2-oxo-1,2-dihydro-pyridine-3-carboxylic acid [4-(6-bromo-pyrazolo[1,5-a]pyridin-4-yloxy)-3-fluoro-phenyl]-amide], the concentration for half-maximal inhibition (IC50) was in the range of 10 to 100 nM. Turning to `Cc1noc(C)c1-c1cc(Oc2ccc(NC(=O)c3cccn(-c4ccc(F)cc4)c3=O)cc2F)c2ccnn2c1` [Example 48, 1-(4-Fluoro-phenyl)-2-oxo-1,2-dihydro-pyridine-3-carboxylic acid{4-[6-(3,5-dimethyl-isoxazol-4-yl)-pyrazolo[1,5-a]pyridin-4-yloxy]-3-fluoro-phenyl}-amide], the 50% inhibitory concentration (IC50) was under 10 nM. Consider `Cc1ccc(C(=O)Nc2ccc(Oc3cc(C4CCS(=O)(=O)CC4)cn4nccc34)c(F)c2)c(=O)n1-c1ccc(F)cc1` [Example 50, 1-(4-Fluoro-phenyl)-6-methyl-2-oxo-1,2-dihydro-pyridine-3-carboxylic acid {4-[6-(1,1-dioxo-hexahydro-thiopyran-4-yl)-pyrazolo[1,5-a]pyridin-4-yloxy]-3-fluoro-phenyl}-amide], for which the IC50 is under 10 nM.

On to `O=C(Nc1ccc(Oc2cccn3ncc(Cl)c23)c(F)c1)c1cccn(-c2ccc(F)cc2)c1=O` [Example 23, 1-(4-Fluoro-phenyl)-2-oxo-1,2-dihydro-pyridine-3-carboxylic acid [4-(3-chloro-pyrazolo[1,5-a]pyridin-4-yloxy)-3-fluoro-phenyl]-amide], for which the IC50 fell in the range of 101 to 1000 nM.
